For assay [1], the target named is T1, C5a receptor (Homo sapiens, UniProt P21730).
T1 sequence (P21730 1-350): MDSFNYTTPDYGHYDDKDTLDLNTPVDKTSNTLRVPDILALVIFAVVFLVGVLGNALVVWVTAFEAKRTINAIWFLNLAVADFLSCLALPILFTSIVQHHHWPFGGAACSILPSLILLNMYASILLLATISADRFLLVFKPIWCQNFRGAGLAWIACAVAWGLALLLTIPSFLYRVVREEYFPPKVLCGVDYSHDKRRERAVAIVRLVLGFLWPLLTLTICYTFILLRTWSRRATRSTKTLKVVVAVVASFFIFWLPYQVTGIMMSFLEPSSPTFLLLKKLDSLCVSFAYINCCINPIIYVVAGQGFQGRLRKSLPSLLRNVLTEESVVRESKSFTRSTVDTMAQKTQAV
In words: [125I]-C5a Radioligand Binding Assay (competition binding, differentiated U937 cells).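 On all read-outs here: cells preincubated with compound 30 min at room temperature, then 60 min at 4 °C with radioligand, bound counts read by scintillation, nonspecific binding defined with 100 nM C5a.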 To be noted: for [125I]-C5a Binding % Inhibition 1 μM: test compound 1 μM; for [125I]-C5a Binding % Inhibition 1 μM / [125I]-C5a Binding % Inhibition 10 μM / inhibition at 1 µM / inhibition at 10 µM: [125I]-C5a 0.05 nM, U937 cells, multiple values = duplicate experiments; for [125I]-C5a Binding % Inhibition 10 μM: test compound 10 μM; for inhibition at 1 µM: read-out: [125I]-C5a Binding % Inhibition 1 μM, test compound 1 μM; for inhibition at 10 µM: read-out: [125I]-C5a Binding % Inhibition 10 μM, test compound 10 μM.
Experimental: Competition binding assays for C5a receptors were performed by incubation of differentiated U937 cells (200,000 cells/well), test compound (1% DMSO) and [^125I]-C5a (Bolton & Hunter labeled, Perkin Elmer, specific activity=2200 Ci/mmol, 0.05 nM final) in binding buffer consisting of 50 mM HEPES, 5 mM MgCl2, 1 mM CaCl2, 0.5% protease-free BSA, 0.02% NaN3, pH 7.4. 100× solutions of test compounds were prepared in DMSO and further diluted in binding buffer. Non-specific binding was defined in wells containing 100 nM recombinant C5a. Cells and compound were pre-incubated for 30 min at RT. After addition of the radioligand, further incubation for 60 min occurred at 4° C. Cells were harvested on GF/B filters—presoaked in 0.5% polyethylenimine, followed by washing with binding buffer containing 500 mM NaCl, pH 7.4. Filter bound radioactivity was determined by liquid scintillation counting. IC50 and Ki values were calculated using non-linear regression in Graphpad Prism. Ki is calculated using the equation of Cheng and Prusoff (Biochem. Pharmacol. 1973, 22: 3099-3108)

Assay [2] has as its target T1, C5a receptor. Nature of the assay: Calcium Mobilization Assay (C5a-induced Ca2+ mobilization, FLIPR, differentiated U937 cells). In kind it is cell-based. Further details: endogenous in cells; host or cells: U937 cells differentiated with dibutyryl cAMP. The following applies: […] recombinant human C5a, 20 min pre-incubation, multiple values = duplicate experiments, read-out: C5a Induced Ca Mobil. Average IC50. The procedure:
U937 cells (human monocytic cell line) were cultured in RPMI-1640 medium supplemented with 10% fetal bovine serum, 10 mM HEPES, 0.11 g/L pyruvate, 0.29 g/L L-glutamine, 100 IU/mL penicillin G and […] streptomycin. Dibutyryl cAMP (1 mM) was added to induce differentiation 2 or 3 days prior to loading the cells with 4.4 μM Fluo-3AM (Molecular Probes) for 30 min at 37° C. in RPMI medium containing 20 mM HEPES, 0.1% bovine serum albumin (BSA) and 5 mM probenecid. After washing, cells were dissolved at 2×10^6 cells/ml in HBSS buffer (Invitrogen 14190-094) supplemented with 10 mM HEPES, 2.5 mM probenecid and 0.1% BSA (pH=7.4), and sedimented by 1 min centrifugation (1500 rpm) in black 96-well plates (Costar) (200,000 cells/well). A 100× concentration range of test compounds was prepared in DMSO and further diluted in HBSS buffer. U937 cells were pre-incubated with compound for 20 minutes at room temperature (1% DMSO), before recombinant human C5a (Sigma) was added to the cells (1.5 nM). Changes in intracellular free Ca^2+ concentration were measured using the Fluorescent Imaging Plate Reader (FLIPR, Molecular Devices). Fluorescence was recorded every second from 10 seconds before the addition of C5a until 2 min after the addition. The maximal fluorescence obtained during this time frame was used for further calculations.
(In general: A change in cytosolic calcium serves as a functional read-out for many receptors and channels.)

Values joined by “and” are separate entries in the source; they are usually repeats but may differ in a detail not shown here. Equal entries are not always repeated. Where only a bound is given, the exact number is not on record here.

The values below come from patent US20090048295A1, “SUBSTITUTED 5,6,7,8-TETRAHYDROQUINOLINE DERIVATIVES, COMPOSITIONS, AND METHODS OF USE THEREOF” (priority 2007, published 2009).

For the molecule `COc1cc(-c2c(C)cccc2C)nc2c1C(N(C)c1cccc3[nH]ccc13)CCC2` (stereo not shown) [Compound 113], at C5a receptor [1], the “[125I]-C5a Binding % Inhibition 1 μM” value is recorded as 33% and the “[125I]-C5a Binding % Inhibition 10 μM” value stood at 54%. Further, the IC50 – broadly, the concentration needed to halve the response being measured – at C5a receptor [2] is greater than 10000 nM. With `CCc1cccc(CC)c1-c1cc(OC)c2c(n1)CCCC2Nc1ccccc1CN` (stereo not shown) [Compound 75], the IC50 at C5a receptor [2] worked out at 4960 nM. Regarding `CCc1cccc(CC)c1-c1cc(OC)c2c(n1)CCCC2Nc1cc(OC)ccc1Cl` (stereo not shown) [Compound 32], on C5a receptor [1], the inhibition – broadly, the change of the read-out against control, counted positive when it falls – at 1 µM is 88% and the inhibition at 10 µM came to 91%. Moreover, the 50% inhibitory concentration (IC50) at C5a receptor [2] was 380 nM. For the molecule `CCc1cccc(CC)c1-c1cc(OC)c2c(n1)CCCC2Nc1ccccc1C(=O)O` (stereo not shown) [Compound 33], the half-inhibitory concentration (IC50) on C5a receptor [2] was determined as 414 nM.

For the molecule `CCc1cccc(CC)c1-c1cc(OC)c2c(n1)CCCC2N1CCc2cc(OC)c(OC)cc2C1` (stereo not shown) [Compound 127], at C5a receptor [1], the inhibition at 1 µM is -9% and the inhibition at 10 µM amounted to 42%. For `CCc1cccc(CC)c1-c1cc(OC)c2c(n1)CCCC2Nc1ccccc1C` (stereo not shown) [Compound 46], on C5a receptor [1], the inhibition at 1 µM worked out at 81% and the inhibition at 10 µM came to 87%. Regarding `CCN(c1cccc2ccccc12)C1CCCc2nc(-c3cccnc3)cc(OC)c21` (stereo not shown) [Compound 136], on C5a receptor [1], the inhibition at 1 µM came out at 2% and the inhibition at 10 µM is 35%.

Regarding `CCOC(=O)c1ccccc1OC1CCCc2nc(-c3c(CC)cccc3CC)cc(OC)c21` (stereo not shown) [Compound 150], the IC50 at C5a receptor [2] is greater than 10000 nM. As for `COc1cc(-c2c(C)cccc2C)nc2c1C(N(C)c1c(C)cccc1C)CCC2` (stereo not shown) [Compound 114], on C5a receptor [1], the inhibition at 1 µM stood at 63% and the inhibition at 10 µM was found to be 73%. On to `CCc1cccc(CC)c1-c1cc(OC)c2c(n1)CCCC2Nc1cccc2ccccc12` (stereo not shown) [Compound 103], for which, on C5a receptor [1], the “[125I]-C5a Binding % Inhibition 1 μM” value is recorded as 48% and the “[125I]-C5a Binding % Inhibition 10 μM” value is 61%. Turning to `CCc1cccc(CC)c1-c1cc(O)c2c(n1)CCCC2Nc1cc(O)ccc1C` (stereo not shown) [Compound 146], at C5a receptor [2], the concentration for half-maximal inhibition (IC50) was greater than 10000 nM. With `CCc1cccc(CC)c1-c1cc(OC)c2c(n1)CCCC2Nc1cc(C(F)(F)F)ccc1CO` (stereo not shown) [Compound 2], on C5a receptor [2], the half-maximal inhibitory concentration (IC50) was 22 nM. As to `CCN(c1cccc2ccccc12)C1CCCc2nc(-c3c(C)noc3C)cc(OC)c21` (stereo not shown) [Compound 151], the half-maximal inhibitory concentration (IC50) at C5a receptor [2] is greater than 10000 nM.

`CCN(c1cccc2ccccc12)C1CCCc2nc(-c3ccccc3-c3ccccc3)cc(OC)c21` (stereo not shown) [Compound 107]: at C5a receptor [1], the inhibition at 1 µM is 76% and the inhibition at 10 µM amounted to 84%. Turning to `CCc1cccc(CC)c1-c1cc(OC)c2c(n1)CCCC2Nc1cc(Cl)ccc1CO` (stereo not shown) [Compound 3], the IC50 at C5a receptor [2] turned out to be 26 nM. For `CCc1cccc(CC)c1-c1cc(OC)c2c(n1)CCCC2N(C)c1cc(-c2ccccc2)ccc1C` (stereo not shown) [Compound 122], at C5a receptor [1], the inhibition at 1 µM was 81% and the inhibition at 10 µM amounted to 84%.

Take `CCc1cccc(CC)c1-c1cc(OC)c2c(n1)CCCC2Nc1cccc(CO)c1` (stereo not shown) [Compound 142]: on C5a receptor [2], the IC50 was greater than 10000 nM. `CCc1cccc(CC)c1-c1cc(OC)c2c(n1)CCCC2N1CCc2ccc(C(F)(F)F)cc2C1` (stereo not shown) [Compound 101]: at C5a receptor [1], the inhibition at 1 µM came out at 75% and the inhibition at 10 µM came to 79%.

Take `CCc1cccc(CC)c1-c1cc(OC)c2c(n1)CCCC2Oc1ccccc1CCO` (stereo not shown) [Compound 64]: the half-maximal inhibitory concentration (IC50) on C5a receptor [2] is 2390 nM. As for `CCc1cccc(CC)c1-c1cc(CC)c2c(n1)CCCC2N(CC)c1cccc2ccccc12` (stereo not shown) [Compound 23], the IC50 on C5a receptor [2] was determined as 191 nM.

Regarding `CCc1cccc(CC)c1-c1cc(OC)c2c(n1)CCCC2(C)Nc1cc(OC)ccc1C` (stereo not shown) [Compound 140], the IC50 on C5a receptor [2] is greater than 10000 nM. Turning to `CCc1cccc(CC)c1-c1cc(OC2CCCC2)c2c(n1)CCCC2N(CC)c1cccc2ccccc12` (stereo not shown) [Compound 6], on C5a receptor [2], the IC50 came to 37 nM.

As to `CCc1cccc(CC)c1-c1cc(OC(C)C)c2c(n1)CCCC2Nc1cc(OC)ccc1C` (stereo not shown) [Compound 18], on C5a receptor [2], the IC50 amounted to 137 nM. Consider `CCc1cccc(CC)c1-c1cc(OC)c2c(n1)CCCC2NCc1ccccc1N` (stereo not shown) [Compound 145], for which the IC50 at C5a receptor [2] was greater than 10000 nM. With `CCN(c1cccc2ccccc12)C1CCCc2nc(-c3c(Cl)cccc3OC)cc(OC)c21` (stereo not shown) [Compound 13], the 50% inhibitory concentration (IC50) at C5a receptor [2] turned out to be 109 nM. On the same count and under the same terms, the figure for `CCc1cccc(CC)c1-c1cc(OC(C)C)c2c(n1)CCCC2Nc1ccccc1CCO` (stereo not shown) [Compound 1] is 7.3 nM. With `CCc1cccc(CC)c1-c1cc(OC)c2c(n1)CCCC2N1CCc2ccc(OC)cc2C1` (stereo not shown) [Compound 100], at C5a receptor [1], the inhibition at 1 µM came to 70% and the inhibition at 10 µM was found to be 82%.

Take `CCc1cccc(CC)c1-c1cc(OC)c2c(n1)CCCC2Oc1ccccc1CO` (stereo not shown) [Compound 139]: the IC50 at C5a receptor [2] is greater than 10000 nM. In the case of `CCc1cccc(CC)c1-c1cc(OC)c2c(n1)CCCC2Nc1ccc(CO)cc1C` (stereo not shown) [Compound 141], at C5a receptor [2], the IC50 was greater than 10000 nM. Take `CCc1cccc(CC)c1-c1cc(OC)c2c(n1)CCCC2Oc1cc(OC)ccc1C=O` (stereo not shown) [Compound 143]: the 50% inhibitory concentration (IC50) at C5a receptor [2] was greater than 10000 nM. On to `CCc1cccc(CC)c1-c1cc(OC2CCCC2)c2c(n1)CCCC2Nc1cc(OC)ccc1C` (stereo not shown) [Compound 17], for which the IC50 on C5a receptor [2] is 134 nM.

As for `CCc1cccc(CC)c1-c1cc(OC)c2c(n1)CCCC2N(C)c1cccc2c(OC)cccc12` (stereo not shown) [Compound 118], at C5a receptor [1], the inhibition at 1 µM was 71% and the inhibition at 10 µM is 77%.

`CCc1cccc(CC)c1-c1cc(OC)c2c(n1)CCC[C@H]2N(CC)c1cccc2ccccc12` [Compound 4]: on C5a receptor [1], the inhibition at 1 µM stood at 94%, the inhibition at 10 µM was found to be 95%, the “[125I]-C5a Binding % Inhibition 1 μM” value was determined as 99% and the “[125I]-C5a Binding % Inhibition 10 μM” value came out at 101%. In the case of `CCc1cccc(CC)c1-c1cc(OC)c2c(n1)CCCC2Nc1cnccc1CO` (stereo not shown) [Compound 71], on C5a receptor [2], the IC50 stood at 3470 nM.

On to `CCc1cccc(CC)c1-c1cc(OC)c2c(n1)CCCC2Nc1ccc(F)cc1CO` (stereo not shown) [Compound 7], for which the 50% inhibitory concentration (IC50) on C5a receptor [2] was found to be 53 nM. For the molecule `CCc1cccc(CC)c1-c1cc(OC)c2c(n1)CCCC2N(CC)c1cccc2ccccc12` (racemic) [Compound 12, (±)-[2-(2,6-Diethyl-phenyl)-4-methoxy-5,6,7,8-tetrahydro-quinolin-5-yl]-ethyl-naphthlen-1-yl-amine], at C5a receptor [1], the inhibition at 1 µM was determined as 94%; the inhibition at 10 µM is 97%; the “[125I]-C5a Binding % Inhibition 1 μM” value was 88% and 98% and 101% and 100% and 81%; the “[125I]-C5a Binding % Inhibition 10 μM” value is 92% and 102, 102, % and 90%. As to `CCCC1(Nc2cc(OC)ccc2C)CCCc2nc(-c3c(CC)cccc3CC)cc(OC)c21` (racemic) [Compound 70, (±)-[2-(2,6-Diethyl-phenyl)-4-methoxy-5-propyl-5,6,7,8-tetrahydro-quinolin-5-yl]-(5-methoxy-2-methyl-phenyl)-amine], the IC50 on C5a receptor [2] came to 3470 nM.

Regarding `CCc1cccc(CC)c1-c1cc(CC)c2c(n1)CCCC2Nc1cc(OC)ccc1C` (racemic) [Compound 25, (±)-[2-(2,6-Diethyl-phenyl)-4-ethyl-5,6,7,8-tetrahydro-quinolin-5-yl]-(5-methoxy-2-methyl-phenyl)-amine], at C5a receptor [2], the IC50 was 244 nM.

Consider `CCN(c1cccc2ccccc12)C1CCCc2nc(-c3ccsc3)cc(OC)c21` (stereo not shown) [Compound 134], for which, at C5a receptor [1], the inhibition at 1 µM is -8% and the inhibition at 10 µM came to 40%. Consider `CCc1cccc(CC)c1-c1cc(OC)c2c(n1)CCCC2Nc1cccc2ccccc12` (stereo not shown) [Compound 132], for which, at C5a receptor [1], the “[125I]-C5a Binding % Inhibition 1 μM” value is listed as 12% and the “[125I]-C5a Binding % Inhibition 10 μM” value was 34%. Turning to `CCc1cccc(CC)c1-c1cc(OCCN(C)C)c2c(n1)CCCC2Nc1cc(OC)ccc1C` (stereo not shown) [Compound 62], the IC50 at C5a receptor [2] was found to be 2320 nM.

B1: C5a: anaphylatoxin C5a, 74-amino acid N-terminal fragment of complement factor C5; recombinant human C5a (Sigma), radioligand [125I]-C5a (protein, UniProt P01031 678-751, looked up)
C5a anaphylatoxin: TLQKKIEEIAAKYKHSVVKKCCYDGACVNNDETCEQRAARISLGPRCIKAFTECCVVASQLRANISHKDMQLGR
modifications: C5a anaphylatoxin also 125I-labelled radioligand
Take B1: the Kd (in general, the free concentration of one partner at which half of the binding sites on the other are occupied at equilibrium, for simple one-to-one binding) with C5a receptor [1] (read-out: C5a Kd, Kd of C5a used for the Ki calculation) was 0.324 nM.
